Data reported in PMC4331254 (European journal of pharmacology, 2015).
Read-outs that look alike come from different tables or passages of the source.

How the values were obtained:
[1] = tested on: male Sprague-Dawley rats; settings: for substitution for BU224 discriminative stimulus: full ≥ 80%, partial ≥ 60% and < 80% training drug-appropriate responding; for antagonism of the discriminative stimulus effects of BU224: 10-min pretreatment, dose ratio 95% CLs included 1
[2] = tested on: male Sprague-Dawley rats; settings: for substitution for phenyzoline discriminative stimulus: full ≥ 80%, partial ≥ 60% and < 80% training drug-appropriate responding; for antagonism of the discriminative stimulus effects of phenyzoline: 10-min pretreatment, dose ratio 95% CLs included 1
[3] = tested on: rats; settings: rat, in vivo; cited from earlier work
[4] = tested on: rats discriminating 2-BFI; settings: ref MacInnes and Handley, 2002, Jordan et al., 1996; cited from earlier work
[5] = target: I2 receptors; settings: cited from earlier work
[6] = tested on: rats discriminating CR4056; settings: ref Qiu et al., 2014a; cited from earlier work
[7] = target: 5-HT1A (Homo sapiens, UniProt P08908); assay: Binding selectivity screening, 5-HT1A
5-HT1A, sequence (P08908 whole entry, species assumed): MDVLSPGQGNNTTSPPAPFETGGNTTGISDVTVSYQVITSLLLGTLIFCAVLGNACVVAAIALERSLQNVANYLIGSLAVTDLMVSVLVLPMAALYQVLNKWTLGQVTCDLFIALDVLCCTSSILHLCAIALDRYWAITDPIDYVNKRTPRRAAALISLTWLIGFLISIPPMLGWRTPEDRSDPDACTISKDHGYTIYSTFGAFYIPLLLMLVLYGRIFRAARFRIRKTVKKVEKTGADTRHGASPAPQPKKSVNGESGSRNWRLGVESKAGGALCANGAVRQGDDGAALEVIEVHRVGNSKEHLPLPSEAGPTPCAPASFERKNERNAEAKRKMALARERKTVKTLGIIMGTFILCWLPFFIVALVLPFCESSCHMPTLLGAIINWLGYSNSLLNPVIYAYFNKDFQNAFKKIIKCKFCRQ

[8] = target: 5-HT1B (Homo sapiens, UniProt P28222); assay: Binding selectivity screening, 5-HT1B; settings: read-out: % inhibition (10nM)
[9] = target: 5-HT1D (Homo sapiens, UniProt P28221); assay: Binding selectivity screening, 5-HT1D; settings: read-out: % inhibition (10nM)
[10] = target: 5-HT1E (Homo sapiens, UniProt P28566); assay: Binding selectivity screening, 5-HT1E; settings: read-out: % inhibition (10nM)
[11] = target: 5-HT2A (Homo sapiens, UniProt P28223); assay: Binding selectivity screening, 5-HT2A; settings: read-out: % inhibition (10nM)
[12] = target: 5-HT2C (Homo sapiens, UniProt P28335); assay: Binding selectivity screening, 5-HT2C; settings: read-out: % inhibition (10nM)
[13] = target: 5-HT3 (Homo sapiens, UniProt P46098); assay: Binding selectivity screening, 5-HT3; settings: read-out: % inhibition (10nM)
5-HT3, sequence (P46098 24-478): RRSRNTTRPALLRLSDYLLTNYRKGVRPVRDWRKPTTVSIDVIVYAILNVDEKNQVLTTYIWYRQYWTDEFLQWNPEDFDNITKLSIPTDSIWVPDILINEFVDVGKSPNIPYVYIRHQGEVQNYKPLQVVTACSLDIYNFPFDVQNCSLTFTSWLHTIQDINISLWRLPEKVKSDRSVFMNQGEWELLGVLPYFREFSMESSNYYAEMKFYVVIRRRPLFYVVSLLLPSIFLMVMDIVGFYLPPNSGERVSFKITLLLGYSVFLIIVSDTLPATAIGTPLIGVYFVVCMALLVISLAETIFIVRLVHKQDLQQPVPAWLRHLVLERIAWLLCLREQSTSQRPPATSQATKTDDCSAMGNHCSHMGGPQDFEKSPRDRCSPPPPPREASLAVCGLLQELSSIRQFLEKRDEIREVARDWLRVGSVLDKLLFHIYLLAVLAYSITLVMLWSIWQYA

[14] = target: 5-HT5A (Homo sapiens, UniProt P47898); assay: Binding selectivity screening, 5-HT5A; settings: read-out: % inhibition (10nM)
5-HT5A, sequence (P47898 whole entry): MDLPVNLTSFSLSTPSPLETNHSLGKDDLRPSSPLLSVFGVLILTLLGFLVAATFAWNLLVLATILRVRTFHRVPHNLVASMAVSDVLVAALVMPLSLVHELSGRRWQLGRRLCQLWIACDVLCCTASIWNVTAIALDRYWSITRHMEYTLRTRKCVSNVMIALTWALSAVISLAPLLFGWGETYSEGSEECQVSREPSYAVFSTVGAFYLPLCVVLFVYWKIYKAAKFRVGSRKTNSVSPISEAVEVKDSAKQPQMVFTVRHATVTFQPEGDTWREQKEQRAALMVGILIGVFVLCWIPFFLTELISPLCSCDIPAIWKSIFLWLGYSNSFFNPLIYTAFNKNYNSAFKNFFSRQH

[15] = target: 5-HT7 (Homo sapiens, UniProt P34969); assay: Binding selectivity screening, 5-HT7; settings: read-out: % inhibition (10nM)
[16] = target: alpha 1A (Homo sapiens, UniProt P35348); assay: Binding selectivity screening, alpha 1A; settings: read-out: % inhibition (10nM)
alpha 1A, sequence (P35348 whole entry): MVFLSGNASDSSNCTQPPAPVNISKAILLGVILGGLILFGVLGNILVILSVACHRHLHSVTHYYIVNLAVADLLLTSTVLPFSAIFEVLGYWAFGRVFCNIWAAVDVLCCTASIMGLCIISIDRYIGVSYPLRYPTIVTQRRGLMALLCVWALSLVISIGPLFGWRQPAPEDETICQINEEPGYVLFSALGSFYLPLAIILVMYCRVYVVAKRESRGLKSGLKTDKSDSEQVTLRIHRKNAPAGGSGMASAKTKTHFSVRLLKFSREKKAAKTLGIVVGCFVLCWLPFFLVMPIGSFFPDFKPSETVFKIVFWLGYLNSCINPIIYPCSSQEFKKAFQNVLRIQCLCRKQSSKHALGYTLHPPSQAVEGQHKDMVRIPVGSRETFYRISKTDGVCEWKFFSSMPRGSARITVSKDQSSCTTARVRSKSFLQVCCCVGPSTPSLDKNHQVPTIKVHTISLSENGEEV

[17] = target: alpha 2B (Homo sapiens, UniProt P35368); assay: Binding selectivity screening, alpha 2B; settings: read-out: % inhibition (10nM)
[18] = target: alpha 1D (Homo sapiens, UniProt P25100); assay: Binding selectivity screening, alpha 1D; settings: read-out: % inhibition (10nM)
[19] = target: alpha 2A (Homo sapiens, UniProt P08913); assay: Binding selectivity screening, alpha 2A
[20] = target: alpha 2B (Homo sapiens, UniProt P18089); assay: Binding selectivity screening, alpha 2B; settings: read-out: % inhibition (10nM)
[21] = target: alpha 2C (Homo sapiens, UniProt P18825); assay: Binding selectivity screening, alpha 2C; settings: read-out: % inhibition (10nM)
[22] = target: β 1 (Homo sapiens, UniProt P08588); assay: Binding selectivity screening, β 1; settings: read-out: % inhibition (10nM)
[23] = target: β 2 (Homo sapiens, UniProt P07550); assay: Binding selectivity screening, β 2; settings: read-out: % inhibition (10nM)
[24] = target: β 3 (Homo sapiens, UniProt P13945); assay: Binding selectivity screening, β 3; settings: read-out: % inhibition (10nM)
[25] = target: D1 (Homo sapiens, UniProt P21728); assay: Binding selectivity screening, D1; settings: read-out: % inhibition (10nM)
[26] = target: D2 (Homo sapiens, UniProt P14416); assay: Binding selectivity screening, D2; settings: read-out: % inhibition (10nM)
[27] = target: D3 (Homo sapiens, UniProt P35462); assay: Binding selectivity screening, D3; settings: read-out: % inhibition (10nM)
[28] = target: D4 (Homo sapiens, UniProt P21917); assay: Binding selectivity screening, D4; settings: read-out: % inhibition (10nM)
D4, sequence (P21917 whole entry): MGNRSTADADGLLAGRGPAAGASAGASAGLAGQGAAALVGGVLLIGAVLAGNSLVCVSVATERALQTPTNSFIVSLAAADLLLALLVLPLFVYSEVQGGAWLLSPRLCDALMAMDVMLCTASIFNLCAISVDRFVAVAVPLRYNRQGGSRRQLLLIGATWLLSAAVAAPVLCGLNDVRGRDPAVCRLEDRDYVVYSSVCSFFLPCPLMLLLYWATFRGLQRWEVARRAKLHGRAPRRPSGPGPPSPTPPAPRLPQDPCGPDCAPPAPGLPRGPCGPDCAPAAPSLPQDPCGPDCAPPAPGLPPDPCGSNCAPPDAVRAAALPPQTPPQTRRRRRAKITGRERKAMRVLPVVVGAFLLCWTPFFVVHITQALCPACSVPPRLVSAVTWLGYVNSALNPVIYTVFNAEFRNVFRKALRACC

[29] = target: D5 (Homo sapiens, UniProt P21918); assay: Binding selectivity screening, D5; settings: read-out: % inhibition (10nM)
D5, sequence (P21918 whole entry): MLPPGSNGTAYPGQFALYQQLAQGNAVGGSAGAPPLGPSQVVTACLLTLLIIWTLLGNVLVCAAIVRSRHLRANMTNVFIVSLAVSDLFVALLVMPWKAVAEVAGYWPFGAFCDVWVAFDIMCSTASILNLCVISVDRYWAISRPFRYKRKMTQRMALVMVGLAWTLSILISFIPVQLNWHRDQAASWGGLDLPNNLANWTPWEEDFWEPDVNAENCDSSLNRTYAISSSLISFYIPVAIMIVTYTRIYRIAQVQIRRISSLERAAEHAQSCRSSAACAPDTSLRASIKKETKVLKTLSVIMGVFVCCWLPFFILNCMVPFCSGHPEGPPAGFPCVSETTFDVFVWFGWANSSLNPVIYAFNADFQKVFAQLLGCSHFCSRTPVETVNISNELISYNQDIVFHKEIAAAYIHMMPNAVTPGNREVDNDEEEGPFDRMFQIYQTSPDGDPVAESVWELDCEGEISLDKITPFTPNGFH

[30] = target: DAT (Homo sapiens, UniProt Q01959); assay: Binding selectivity screening, DAT; settings: read-out: % inhibition (10nM)
[31] = target: δ opioid receptor (Homo sapiens, UniProt P41143); assay: Binding selectivity screening, δ opioid receptor; settings: read-out: % inhibition (10nM)
[32] = target: H1 (Homo sapiens, UniProt P35367); assay: Binding selectivity screening, H1; settings: read-out: % inhibition (10nM)
[33] = target: H3 (Homo sapiens, UniProt Q9Y5N1); assay: Binding selectivity screening, H3; settings: read-out: % inhibition (10nM)
[34] = target: H4 (Homo sapiens, UniProt Q9H3N8); assay: Binding selectivity screening, H4; settings: read-out: % inhibition (10nM)
[35] = target: κ opioid receptor (Homo sapiens, UniProt P41145); assay: Binding selectivity screening, κ opioid receptor; settings: read-out: % inhibition (10nM)
[36] = target: M1 (Homo sapiens, UniProt P11229); assay: biochemical; format: binding; settings: read-out: % inhibition (10nM)
[37] = target: M2 (Homo sapiens, UniProt P08172); assay: biochemical; format: binding; settings: read-out: % inhibition (10nM)
M2, sequence (P08172 whole entry): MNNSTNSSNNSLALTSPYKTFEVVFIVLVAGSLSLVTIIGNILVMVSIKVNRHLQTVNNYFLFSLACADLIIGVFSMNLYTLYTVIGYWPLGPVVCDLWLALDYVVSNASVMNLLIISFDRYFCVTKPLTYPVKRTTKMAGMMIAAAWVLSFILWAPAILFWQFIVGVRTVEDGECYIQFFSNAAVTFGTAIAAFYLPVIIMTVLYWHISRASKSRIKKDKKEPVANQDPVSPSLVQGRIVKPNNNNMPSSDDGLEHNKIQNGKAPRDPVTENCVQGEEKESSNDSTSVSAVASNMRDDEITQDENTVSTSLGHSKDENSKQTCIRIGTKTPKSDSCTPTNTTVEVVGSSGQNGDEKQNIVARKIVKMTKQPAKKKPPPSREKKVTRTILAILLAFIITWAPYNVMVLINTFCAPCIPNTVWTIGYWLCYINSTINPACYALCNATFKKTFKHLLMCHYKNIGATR

[38] = target: M3 (Homo sapiens, UniProt P20309); assay: biochemical; format: binding; settings: read-out: % inhibition (10nM)
M3, sequence (P20309 whole entry): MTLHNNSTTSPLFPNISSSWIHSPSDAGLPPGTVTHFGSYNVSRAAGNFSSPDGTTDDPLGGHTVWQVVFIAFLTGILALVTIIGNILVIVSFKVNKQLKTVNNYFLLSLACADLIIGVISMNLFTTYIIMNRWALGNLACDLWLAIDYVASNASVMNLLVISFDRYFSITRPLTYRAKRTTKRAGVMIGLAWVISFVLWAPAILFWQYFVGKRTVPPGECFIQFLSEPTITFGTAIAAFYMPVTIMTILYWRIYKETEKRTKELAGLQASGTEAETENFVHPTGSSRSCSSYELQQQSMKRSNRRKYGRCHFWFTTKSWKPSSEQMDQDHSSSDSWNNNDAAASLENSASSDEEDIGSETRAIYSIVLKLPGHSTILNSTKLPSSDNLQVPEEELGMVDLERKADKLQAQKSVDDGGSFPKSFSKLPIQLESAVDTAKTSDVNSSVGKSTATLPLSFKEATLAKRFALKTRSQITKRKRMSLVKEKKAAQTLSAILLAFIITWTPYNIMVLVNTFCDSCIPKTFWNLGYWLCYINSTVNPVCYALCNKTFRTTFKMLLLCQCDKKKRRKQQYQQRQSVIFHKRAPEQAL

[39] = target: M4 (Homo sapiens, UniProt P08173); assay: biochemical; format: binding; settings: read-out: % inhibition (10nM)
[40] = target: M5 (Homo sapiens, UniProt P08912); assay: biochemical; format: binding; settings: read-out: % inhibition (10nM)
M5, sequence (P08912 whole entry): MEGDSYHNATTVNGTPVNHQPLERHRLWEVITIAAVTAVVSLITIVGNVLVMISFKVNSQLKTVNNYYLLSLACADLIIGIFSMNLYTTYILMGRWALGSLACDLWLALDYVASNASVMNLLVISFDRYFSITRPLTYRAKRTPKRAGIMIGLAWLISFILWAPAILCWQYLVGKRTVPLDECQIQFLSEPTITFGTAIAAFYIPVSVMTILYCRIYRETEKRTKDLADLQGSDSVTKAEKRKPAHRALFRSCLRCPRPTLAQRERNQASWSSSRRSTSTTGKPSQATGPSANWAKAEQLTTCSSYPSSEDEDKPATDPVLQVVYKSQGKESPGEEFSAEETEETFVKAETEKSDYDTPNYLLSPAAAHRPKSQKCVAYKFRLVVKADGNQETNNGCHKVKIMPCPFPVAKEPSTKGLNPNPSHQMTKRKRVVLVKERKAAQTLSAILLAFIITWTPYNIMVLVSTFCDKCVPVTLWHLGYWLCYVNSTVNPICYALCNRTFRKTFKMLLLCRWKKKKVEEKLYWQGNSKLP

[41] = target: μ opioid receptor (Homo sapiens, UniProt P35372); assay: Binding selectivity screening, μ opioid receptor; settings: read-out: % inhibition (10nM)
[42] = target: NET (Homo sapiens, UniProt P23975); assay: Binding selectivity screening, NET; settings: read-out: % inhibition (10nM)
NET, sequence (P23975 whole entry): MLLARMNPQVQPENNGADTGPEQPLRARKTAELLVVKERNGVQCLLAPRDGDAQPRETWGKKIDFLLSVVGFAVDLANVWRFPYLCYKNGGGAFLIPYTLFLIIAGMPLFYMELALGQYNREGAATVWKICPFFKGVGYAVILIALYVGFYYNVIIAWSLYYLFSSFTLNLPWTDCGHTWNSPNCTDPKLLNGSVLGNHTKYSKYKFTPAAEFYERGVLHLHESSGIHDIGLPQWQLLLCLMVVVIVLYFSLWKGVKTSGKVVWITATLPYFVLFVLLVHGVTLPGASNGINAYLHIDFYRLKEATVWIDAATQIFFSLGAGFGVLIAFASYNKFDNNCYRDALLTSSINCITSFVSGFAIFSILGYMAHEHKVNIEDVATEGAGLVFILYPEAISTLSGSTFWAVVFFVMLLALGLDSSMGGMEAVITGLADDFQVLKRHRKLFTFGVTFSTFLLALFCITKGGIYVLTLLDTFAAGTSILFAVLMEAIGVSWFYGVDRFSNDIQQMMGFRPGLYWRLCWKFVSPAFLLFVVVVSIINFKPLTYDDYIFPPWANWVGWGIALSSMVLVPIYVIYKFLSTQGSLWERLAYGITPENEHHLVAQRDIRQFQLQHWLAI

[43] = target: SERT (Homo sapiens, UniProt P31645); assay: Binding selectivity screening, SERT; settings: read-out: % inhibition (10nM)

For `Cl.c1ccc2oc(C3=NCCN3)cc2c1` [2-BFI, 2-(2-Benzofuranyl)-2-imidazoline hydrochloride], the “substitution for BU224 discriminative stimulus” value [1] is listed as “fully substituted”, the “substitution for phenyzoline discriminative stimulus” value [2] is listed as “only partially substituted” and the “dose that significantly suppresses food-maintained operant responding” value [3] is listed as 10 mg/kg.
In the case of `Cl.c1ccc2nc(C3=NCCN3)ccc2c1` [BU224, 2-(4,5-Dihydroimidazol-2-yl) quinoline hydrochloride], the “duration of discriminative stimulus effects” value ([1]; 5.6 mg/kg BU224 i.p.) is reported as 120 min, the “effect on response rate” value ([1]; rat, in vivo) is reported as “without significantly altering response rate” and the “substitution for phenyzoline discriminative stimulus” value [2] is reported as “completely substituted”. For the same molecule, the “substitution for 2-BFI discriminative stimulus” value [4] was “fully substituted” and the “dose that significantly suppresses food-maintained operant responding” value [3] was 17.8 mg/kg.
In the case of `c1ccc(-c2ncc3cc(-n4ccnc4)ccc3n2)cc1` [CR4056, 2-phenyl-6-(1H-imidazol-1-yl) quinazoline], the IC50 ([5]; read-out: IC50 at I2 receptor, ref Ferrari et al., 2011) is given as 0.596 µM.
For `COc1cccc([C@H](O)C2CCN(CCc3ccc(F)cc3)CC2)c1OC` [MDL100907, (R)-(2,3-dimethoxyphenyl)-[1-[2-(4-fluorophenyl)ethyl]-4-piperidyl] methanol], the “antagonism of the discriminative stimulus effects of BU224” value (from here on “antagonism … of BU224”) [1] was “failed to antagonize” and the “antagonism of the discriminative stimulus effects of phenyzoline” value (“antagonism … of phenyzoline” below) [2] was “failed to antagonize”.
In the case of `Clc1cccc2c1CN(C1=NCCN1)C2` [RS45041, 4-chloro-2-(imidazolin-2-yl) isoindoline], the “BU224-appropriate (drug-associated lever) responding, maximum” value ([1]; substitution test in rats discriminating 5.6 mg/kg BU224) is listed as over 80%, the “phenyzoline-appropriate (drug-associated lever) responding, maximum” value ([2]; substitution test in rats discriminating 32 mg/kg phenyzoline) is listed as over 80% and the “selectivity for I2 receptors over adrenoceptors, dopamine, 5-HT, muscarinic receptors and dihydropyridine binding sites” value ([5]; ref Brown et al., 1995) is listed as over 1000 fold.
With `NCCCCN=C(N)N` [agmatine] the “substitution for BU224 discriminative stimulus” value [1] was “partial or less substitution”.
In the case of `Clc1cccc(Cl)c1N=C1NCCN1` [clonidine], the “substitution for BU224 discriminative stimulus” value [1] is reported as “partial or less substitution” and the “substitution for phenyzoline discriminative stimulus” value [2] is reported as “partial substitution”.
In the case of `O=C(CCCN1CCC(O)(c2ccc(Cl)cc2)CC1)c1ccc(F)cc1` [haloperidol], the “antagonism … of BU224” value [1] is reported as “failed to antagonize” and the “antagonism … of phenyzoline” value [2] is reported as “failed to antagonize”.
For `COc1ccc2c3c([nH]c2c1)C(C)=NCC3` [harmaline], the “substitution for 2-BFI discriminative stimulus” value [4] is listed as “fully substitute”.
In the case of `Cc1nccc2c1[nH]c1ccccc12` [harmane], the “substitution for BU224 discriminative stimulus” value [1] is given as “fully substitutes”, the “substitution for phenyzoline discriminative stimulus” value [2] is given as “only partially substitutes” and the “substitution for 2-BFI discriminative stimulus” value [4] is given as “fully substitute”. For the same molecule, the “substitution for CR4056 discriminative stimulus” value [6] was “does not substitute”.
In the case of `c1ccc2c(c1)OCC(C1=NCCN1)O2` (centres unmarked) [idazoxan], the “substitution for BU224 discriminative stimulus” value [1] is given as “fully substituted”, the “substitution for phenyzoline discriminative stimulus” value [2] is given as “fully substituted” and the “substitution for 2-BFI discriminative stimulus” value [4] is given as “fully substitutes”.
With `CNC1(c2ccccc2Cl)CCCCC1=O` (centres unmarked) [ketamine] the “substitution for BU224 discriminative stimulus” value [1] was “partial or less substitution”.
For `CCC(=O)C(CC(C)N(C)C)(c1ccccc1)c1ccccc1` (centres unmarked) [methadone], the “substitution for BU224 discriminative stimulus” value [1] was “partial or less substitution”.
For `CN[C@@H](C)Cc1ccccc1` [methamphetamine], the “substitution for BU224 discriminative stimulus” value [1] was “partial or less substitution” and the “substitution for phenyzoline discriminative stimulus” value [2] was “partial substitution”.
In the case of `CN1CC[C@]23c4c5ccc(O)c4O[C@H]2[C@@H](O)C=C[C@H]3[C@H]1C5` [morphine], the “substitution for BU224 discriminative stimulus” value [1] is reported as “partial or less substitution” and the “substitution for phenyzoline discriminative stimulus” value [2] is reported as “partial substitution”.
For `O=C1CC[C@@]2(O)[C@H]3Cc4ccc(O)c5c4[C@@]2(CCN3CC2CC2)[C@H]1O5` [naltrexone], the “antagonism … of BU224” value [1] was “failed to antagonize” and the “antagonism … of phenyzoline” value [2] was “failed to antagonize”.
Work on `c1ccc(CCC2=NCCN2)cc1` [phenyzoline, 4,5-dihidro-2-(2-phenylethyl)-1H-imidazole] yielded a Ki [7] of over 10 µM, an inhibition at 0.01 µM [8] of -2.6% and an inhibition at 0.01 µM [9] of 5%. For the same molecule, the inhibition at 0.01 µM [10] was -4.2%, the inhibition at 0.01 µM [11] was 38.4% and the inhibition at 0.01 µM [12] was 14.3%. For the same molecule, the inhibition at 0.01 µM [13] was -13.3%, the inhibition at 0.01 µM [14] was 4.6% and the inhibition at 0.01 µM [15] was 23.7%. It also gave an inhibition at 0.01 µM [16] of 17.3%, an inhibition at 0.01 µM [17] of 6.3% and an inhibition at 0.01 µM [18] of -0.6%. The Ki [19] was 0.851 µM, the inhibition at 0.01 µM [20] was 42.7% and the inhibition at 0.01 µM [21] was 29.6%. The inhibition at 0.01 µM [22] was -10.1%, the inhibition at 0.01 µM [23] was 22.9% and the inhibition at 0.01 µM [24] was -5.5%. The inhibition at 0.01 µM [25] was 0.9%, the inhibition at 0.01 µM [26] was -7.3% and the inhibition at 0.01 µM [27] was -4.1%. For the same molecule, the inhibition at 0.01 µM [28] was 9.1%, the inhibition at 0.01 µM [29] was -11.6% and the inhibition at 0.01 µM [30] was 43.6%. It also gave an inhibition at 0.01 µM [31] of -2.7%, an inhibition at 0.01 µM [32] of -10.9% and an inhibition at 0.01 µM [33] of 10.4%. The inhibition at 0.01 µM [34] was 15.2%, the inhibition at 0.01 µM [35] was 7.1% and the inhibition at 0.01 µM [36] was -14.1%. It also gave an inhibition at 0.01 µM [37] of 11.1%, an inhibition at 0.01 µM [38] of -2% and an inhibition at 0.01 µM [39] of -0.5%. The inhibition at 0.01 µM [40] was 25.9%, the inhibition at 0.01 µM [41] was 5.4% and the inhibition at 0.01 µM [42] was 6.8%. For the same molecule, the inhibition at 0.01 µM [43] was 21.9%, the “duration of discriminative stimulus effects” value ([2]; 32 mg/kg phenyzoline i.p.) was 90 min and the “effect on response rate” value ([2]; rat, in vivo) was “without significantly altering response rate”. The “substitution for CR4056 discriminative stimulus” value [6] was “fully substituted”.
In the case of `C(=C\c1ccccc1)/C1=NCCN1` [tracizoline, 2-styryl-4,5-dihydro-lH-imidazole], the “selectivity for I2 receptors over I1 receptors” value ([5]; ref Pigini et al., 1997) is given as 10 fold and the “selectivity for I2 receptors over α2 adrenoceptors” value ([5]; ref Pigini et al., 1997) is given as 7431 fold.
